pEC50, pIC50: −log10 of the molar value. Read-outs that look alike come from different tables or passages of the source.
Experiments:
[1] = biological target: T1, FERM/ErbB2 interaction (Ezrin FERM domain / juxtamembrane ErbB2 peptide) (Homo sapiens, UniProt P04626); assay: AlphaScreen competition assay, FERM/ErbB2 interaction; assay type: binding; details: for Competition assay FERM-ErbB2 interaction Max inhibition, %: 20 h
T1 construct: made in house
Source text: To validate that the Zuclopenthixol hydrochloride (ZU) and its derivatives interact with the juxtamembrane domain of ErbB2, we first analyzed in AlphaScreen® their efficiency to inhibit FERM/ErbB2 interaction in a dose-dependent manner and determined IC50 value. Furthermore, to test the selectivity of those compounds, we tested their ability to disrupt the interaction between the FERM domain and the known ERM binding motif contained in the juxtamembrane region of CD44 as a control.
AlphaScreen® technology was used to assess the interaction between the Ezrin binding motif (EBM) contained in the juxtamembrane portions of ErbB2 or CD44 with the Ezrin FERM domain. For this purpose the Ezrin FERM domain in fusion with Glutathione-S-Transferase (GST) has been coupled to GSH-coated acceptor beads. […] The AlphaScreen® reagents (Glutathione-coated Acceptor beads and streptavidin-coated Donor beads) were obtained from PerkinElmer.
The reaction was performed using white 384-well Optiplates (PerkinElmer, Whalham, Mass., USA) in 20 μl (total reaction volume) in a reaction buffer containing PBS, pH 7.4, 5 mM MgCl2 and 0.02% CHAPS. […] 10 μl of a mix solution containing 20 μg/ml Glutathione-coated Acceptor beads and 20 μg/ml streptavidin-coated Donor beads was then added to the wells and incubation was further proceeded for 40 min or overnight in the dark and at room temperature. Light signal was detected with the EnVision® multilabel plate reader (PerkinElmer). All experiments involving AlphaScreen® beads were performed under subdued lighting.

SKBR3 = assay: MTT cell proliferation, SKBR3; assay type: cell-based, human; details: for pEC50: read-out: Cell proliferation at d 3 SKBR3 EC50
Description: (§1) We then analyzed the ability of ZU and EB1 and their derivatives to decrease the ErbB2-dependent cell proliferation.
(§2) SKBR3, BT474, MCF-7, MDA-MB-231 and HBMEC cells were treated with the compounds as indicated, and cell proliferation was determined each day during 3 days using an MTT assay. Non treated cells were included as a negative control.
(§3) A solution of ZU in cis conformation was mixed to a solution of ZU in trans conformation (1:1) to obtain ZU in a 50/50 cis/trans conformation and their respective effects on ErbB2 activation and ErbB2-dependent cell proliferation were analyzed as previously by dot blot analysis using an anti-phosphotyrosine antibody (clone 4G10) and by MTT assays in the ErbB2-overexpressing breast cancer cell line SKBR3, BT474, or HBMEC as a control.

BT474 = assay: MTT cell proliferation, BT474; assay type: cell-based, human; details: for pEC50: read-out: Cell proliferation at d 3 BT474 EC50
Description: as §1, §2, §3

HBMEC = assay: MTT cell proliferation, HBMEC control cells; assay type: cell-based, human; details: for EC50: read-out: Cell proliferation at d 3 HBMEC EC50, μM; for pEC50: read-out: Cell proliferation at d 3 HBMEC EC50
Description: as §1, §2
The WT, V777L or V842I ErbB2-transfected cells were treated with 5 or 10 μM of ZU and cell proliferation was determined each day during 3 days using an MTT assay. Non transfected cells were included as a negative control.
The WT, V777L or V842I ErbB2-transfected cells were treated with 5 or 10 μM of EB1 and cell proliferation was determined each day during 3 days using an MTT assay. Non transfected cells were included as a negative control.

ErbB2 = ErbB2 (Homo sapiens, UniProt P04626); assay: ErbB2 phosphorylation in SKBR3 cells, dot blot (4G10); assay type: cell-based; set-up: endogenous in cells; host or cells: SKBR3; details: for Emax: SK-BR-3, read-out: ErbB2 activation 24 h Max inhibition, %; for effect on ErbB2 phosphorylation/activation (in words): SKBR3
Description: The ability of ZU and EB1 and their derivatives to inhibit ErbB2 activity in cellulo on a commonly used ErbB2-overexpressing breast cancer cell line SKBR3 was analyzed. SKBR3 were treated 24 h with increasing concentrations of the compounds (0.625-80 μM) and ErbB2 phosphorylation was addressed by dot blot analysis using an anti-phosphotyrosine antibody (clone 4G10). Quantifications show the result of two independent experiments.

[2] = Homo sapiens, SK-BR-3, 72 h, day 3
[3] = Homo sapiens, BT-474, 72 h, day 3
[4] = SKBR3, 24 h, read-out: ErbB2 activation 24 h EC50
[5] = SKBR3, 24 h, read-out: IC50 ErbB2 phosphorylation

Compound	Competition assay FERM-ErbB2 interaction Max inhibition, % [1] [%]	pEC50 (SKBR3; [2])	Cell proliferation at d 3 SKBR3 Max inhibition, % (SKBR3; day 3) [%]	pEC50 (BT474; [3])	Cell proliferation at d 3 BT474 Max inhibition, % (BT474; day 3) [%]	Emax (ErbB2; SKBR3, 24 h, 0.625-80 μM) [%]	effect on ErbB2 phosphorylation/activation (in words) (ErbB2)	Cell proliferation at d 3 HBMEC Max inhibition, % (HBMEC; day 3) [%]	pEC50 (ErbB2; [4])	pIC50 (ErbB2; [5])	inhibition of FERM/ErbB2 interaction (in words) [1]	other results
FCCN1CCN(CC/C=C2/c3ccccc3Sc3ccc(C(F)(F)F)cc32)CC1 [ZUd, (Z)-1-(2-fluoroethyl)-4-(3-(2-(trifluoromethyl)-9H-thioxanthen-9-ylidene)propyl) Piperazine]	54	5.17	86.4	4.78	86	51.4	–	–	–	–	–	reduction of SKBR3 proliferation (SKBR3; 20 μM, day 3): 86%; reduction of BT474 proliferation (BT474; 20 μM, day 3): 86%; toxicity on control cells (in words) (HBMEC): non-specific toxic effects; EC50 (HBMEC; Homo sapiens, 72 h): 16.3 µM; inhibition at 20 µM (HBMEC; Homo sapiens, 72 h, 20 μM, day 3): 90%; pEC50 (ErbB2): 4.69; pIC50 (ErbB2): 4.46 to 5.30
O=C(O)C1CCN(CCC=C2c3ccccc3Oc3ccccc32)CC1 [ZUe, 1-(3-(9H-xanthen-9-ylidene)propyl)piperidine-4-carboxylic acid]	–	–	–	–	–	0	no effect	–	–	–	–	–
O=c1c2ccccc2sn1-c1ccc(Cl)cc1 [EB3]	–	5.05	63.5	5.16	82.7	66.4	–	75.1	4.71	4.70 to 4.74	–	effect on SKBR3 proliferation (in words) (SKBR3; 7 μM): did not significantly decreased; reduction of BT474 proliferation (BT474; 7 μM, day 2): 30%; effect on HBMEC proliferation (in words) (HBMEC; 7 μM): without any effect; pEC50 (HBMEC; Homo sapiens, 72 h, day 3): 2.56
CC(=O)OCCN1CCN(CC/C=C2/c3ccccc3Sc3ccc(Cl)cc32)CC1 [ZU5, (Z)-2-(4-(3-(2-chloro-9H-thioxanthen-9-ylidene)propyl)piperazin-1-yl)ethylacetate]	41	5.46	28.2	4.75	30.8	97.5	–	24.5	4.36	4.46 to 5.30	inhibited FERM/ErbB2 interaction in a specific and dose-dependent manner	reduction of SKBR3 proliferation (SKBR3; 1 and 5 μM, day 3): 60%; reduction of BT474 proliferation (BT474; 1 and 5 μM, day 3): 33%; effect on HBMEC proliferation (in words) (HBMEC; 1 and 5 μM): without any effect; EC50 (HBMEC; Homo sapiens, 72 h): 21.9 µM
OCCN1CCN(CC/C=C2\c3ccccc3Sc3ccc(Cl)cc32)CC1 (single isomer, unassigned) [trans isomer]	–	–	–	–	–	–	–	–	–	–	–	effect on SKBR3 proliferation (in words) (SKBR3; 10 μM): no significant inhibitory effect; effect on BT474 proliferation (in words) (BT474; 10 μM): no significant inhibitory effect
Cc1ccc(-n2sc3ccccc3c2=O)cc1 [EB2]	–	5.03	34.1	4.93	20	43.8	–	29.5	4.74	4.70 to 4.74	–	effect on SKBR3 proliferation (in words) (SKBR3; 5 μM): did not significantly decreased; effect on HBMEC proliferation (in words) (HBMEC; 5 μM): without any effect; pEC50 (HBMEC; Homo sapiens, 72 h, day 3): 4.94
9-(3-(4-(2-hydroxyethyl)piperazinyl)propylidene)-thioxanthene [ZU3]	28	–	32.6	–	31.5	–	–	0	4.49	–	inhibited FERM/ErbB2 interaction in a specific and dose-dependent manner	reduction of SKBR3 proliferation (SKBR3; 20 μM): 30%; pEC50 (SKBR3; day 3): 4.81; reduction of BT474 proliferation (BT474; 20 μM): 30%; pEC50 (BT474; day 3): 5.38; effect on HBMEC proliferation (in words) (HBMEC; 20 μM): without any effect; ErbB2 activation 24 h Max inhibition, % (ErbB2; SKBR3, 24 h, 0.625-80 μM): 75.12%
CCOC(=O)C1CCN(CCC=C2c3ccccc3Oc3ccccc32)CC1 [ZU6, ethyl 1-(3-(9H-xanthen-9-ylidene)propyl)piperidine-4-carboxylate]	–	–	–	–	–	36.2	lower decrease	–	4.45	–	–	–
O=C(O)C1CCN(CCC=C2c3ccccc3Sc3ccccc32)CC1 [ZUf, 1-(3-(9H-thioxanthen-9-ylidene)propyl)piperidine-4-carboxylic acid]	11	–	–	–	–	0	no effect	–	–	–	–	–
CCOC(=O)C1CCN(CCC=C2c3ccccc3Sc3ccccc32)CC1 [ZU4, 9-(3-(4-(ethylacetate)piperidine)propylidene)-thioxanthene]	36	–	–	–	–	27.5	lower decrease	–	4.32	–	inhibited FERM/ErbB2 interaction in a specific and dose-dependent manner	–
CN1CCN(CC/C=C2/c3ccccc3Sc3ccc(S(=O)(=O)N(C)C)cc32)CC1 [ZU2]	16	–	–	–	–	74.2	–	–	4.50	4.46 to 5.30	inhibited FERM/ErbB2 interaction in a specific and dose-dependent manner	–
CS(=O)(=O)CCNCc1ccc(-c2ccc3ncnc(Nc4ccc(OCc5cccc(F)c5)c(Cl)c4)c3c2)o1 [lapatinib, reference compound]	–	–	–	–	–	–	–	–	–	–	did not inhibit	–
NCCN1CCN(CC/C=C2/c3ccccc3Sc3ccc(C(F)(F)F)cc32)CC1 [ZUc, (Z)-2-(4-(3-(2-(trifluoromethyl)-9H-thioxanthen-9-ylidene)propyl)piperazin-1-yl) Ethanamine]	45	6.47	78.9	6.64	94.9	90.8	–	68.8	–	–	–	toxicity on control cells (in words) (HBMEC): non-specific toxic effects; EC50 (HBMEC; Homo sapiens, 72 h): 0.14 µM; pEC50 (ErbB2): 5.29; pIC50 (ErbB2): 4.46 to 5.30

From patent US10766873B2, “Zuclopenthixol hydrochloride derivatives and Ebselen derivatives as ErbB2 inhibitors” (Centre National de la Recherche Scientifique (CNRS), priority 2016, dated 2020)
